In patent publication US20160120186A1, “ENHANCEMENT AND CONTROL OF SEED GERMINATION WITH COMPOSITIONS COMPRISING A TRANSITION METAL CATALYST AND AN OXIDANT” (UNIVERSITY OF SASKATCHEWAN, priority 2013, published 2016):

Columns and labels:
[1] = Microbiocidal properties of per-acids (studies by the inventors)
[2] = Delignification by per-acids (studies by the inventors)

| Compound | microbiocidal properties [1] | delignification of plant wall material [2] |
| --- | --- | --- |
| CC(=O)O[O-].[Na+] [peracetate] | very powerful microbiocidal properties | very efficient delignification |
| O=COO [performate] | very powerful microbiocidal properties | very efficient delignification |
